This passage reports EC50 and Emax results from patent publication US8003660B2, “Modulators of muscarinic receptors” (Vertex Pharmaceuticals Incorporated, priority 2006, dated 2011).

Holding throughout (type): cell-based
The target in test [1] is T1, M1 muscarinic receptor (Homo sapiens, UniProt P11229).
T1 construct: expressed in transfected cells; host or cells: CHO (M1-CHO)
T1 sequence (P11229 1-460): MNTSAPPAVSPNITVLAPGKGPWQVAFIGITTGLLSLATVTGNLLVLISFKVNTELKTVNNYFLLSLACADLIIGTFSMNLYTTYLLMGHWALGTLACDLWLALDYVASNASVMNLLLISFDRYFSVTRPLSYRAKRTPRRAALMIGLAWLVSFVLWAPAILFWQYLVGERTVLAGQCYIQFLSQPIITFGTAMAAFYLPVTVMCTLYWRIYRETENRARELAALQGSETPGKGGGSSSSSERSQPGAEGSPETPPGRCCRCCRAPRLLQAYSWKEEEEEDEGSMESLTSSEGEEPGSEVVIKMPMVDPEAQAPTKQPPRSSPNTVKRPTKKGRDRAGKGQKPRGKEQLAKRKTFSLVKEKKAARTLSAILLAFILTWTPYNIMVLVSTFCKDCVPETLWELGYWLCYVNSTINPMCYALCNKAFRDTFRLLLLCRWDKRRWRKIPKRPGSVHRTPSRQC
Description: Functional mobilization of intracellular calcium (FLIPR) in CHO cells expressing M1. The settings on record: for EC50: CHO cells expressing M1, FLIPR calcium; for Emax: CHO, 100% = maximum response obtained with the Carbachol control, read-out: M1 Efficacy. In a few lines:
(§1)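 Recombinant CHO cells loaded with Fluo-3 AM or Calcium 3 dye in pH 7.4 buffer containing 1 mM probenecid, with 0.5% final DMSO. For agonism, compound is added directly. For inhibition, it is preincubated 15 min, or co-applied, before carbachol at EC80. FLIPR fluorescence (ex 488, em 540 nm) is recorded for 60 s.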
In general terms: Calcium flux is commonly read through the fluorescence of an indicator in the cells.

In test [2] the target is T2, M2 muscarinic receptor (Homo sapiens, UniProt P08172).
T2 construct: expressed in transfected cells; host or cells: CHO (M2-CHO)
T2 sequence (P08172 1-466): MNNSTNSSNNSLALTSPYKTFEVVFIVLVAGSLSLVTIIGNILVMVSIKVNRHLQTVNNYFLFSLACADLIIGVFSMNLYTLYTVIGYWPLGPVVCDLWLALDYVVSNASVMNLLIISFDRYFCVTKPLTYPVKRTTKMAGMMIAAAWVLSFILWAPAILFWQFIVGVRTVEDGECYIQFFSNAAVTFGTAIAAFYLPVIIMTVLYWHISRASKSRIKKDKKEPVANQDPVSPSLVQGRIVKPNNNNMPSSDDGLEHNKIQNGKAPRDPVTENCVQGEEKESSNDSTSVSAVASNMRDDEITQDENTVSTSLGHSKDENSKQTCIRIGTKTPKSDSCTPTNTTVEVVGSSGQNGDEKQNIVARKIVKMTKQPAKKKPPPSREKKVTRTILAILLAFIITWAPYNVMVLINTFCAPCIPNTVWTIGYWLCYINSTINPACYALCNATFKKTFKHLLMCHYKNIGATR
The test can be described thus: Functional mobilization of intracellular calcium (FLIPR) in CHO cells expressing M2. The settings on record: for EC50: CHO cells expressing M2, FLIPR calcium; for Emax: CHO, 100% = maximum response obtained with the Carbachol control, read-out: M2 Efficacy. In a few lines: as §1

The target in test [3] is T3, M3 muscarinic receptor (Homo sapiens, UniProt P20309).
T3 construct: expressed in transfected cells; host or cells: CHO (M3-CHO)
T3 sequence (P20309 whole entry): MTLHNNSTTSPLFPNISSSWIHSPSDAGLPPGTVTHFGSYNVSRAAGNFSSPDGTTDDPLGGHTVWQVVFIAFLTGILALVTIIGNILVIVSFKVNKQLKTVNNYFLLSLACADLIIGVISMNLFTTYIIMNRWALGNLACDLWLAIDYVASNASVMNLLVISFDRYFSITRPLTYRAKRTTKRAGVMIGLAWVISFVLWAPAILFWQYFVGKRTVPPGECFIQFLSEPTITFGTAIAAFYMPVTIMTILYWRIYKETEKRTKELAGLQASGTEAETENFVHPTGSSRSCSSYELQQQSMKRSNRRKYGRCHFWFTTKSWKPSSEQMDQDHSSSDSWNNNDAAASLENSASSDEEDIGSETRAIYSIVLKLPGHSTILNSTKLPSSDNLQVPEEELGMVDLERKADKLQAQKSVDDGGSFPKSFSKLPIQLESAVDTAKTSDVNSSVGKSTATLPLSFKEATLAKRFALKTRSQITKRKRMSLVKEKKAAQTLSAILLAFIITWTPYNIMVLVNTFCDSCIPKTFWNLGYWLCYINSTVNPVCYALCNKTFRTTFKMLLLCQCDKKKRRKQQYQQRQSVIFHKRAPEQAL
The test can be described thus: Functional mobilization of intracellular calcium (FLIPR) in CHO cells expressing M3. As to conditions: for EC50: CHO cells expressing M3, FLIPR calcium; for Emax: CHO, 100% = maximum response obtained with the Carbachol control, read-out: M3 Efficacy. A digest of the protocol:
as §1

The target of test [4] is T4, M4 muscarinic receptor (Homo sapiens, UniProt P08173).
T4 construct: expressed in transfected cells; host or cells: CHO (M4-CHO)
T4 sequence (P08173 1-479): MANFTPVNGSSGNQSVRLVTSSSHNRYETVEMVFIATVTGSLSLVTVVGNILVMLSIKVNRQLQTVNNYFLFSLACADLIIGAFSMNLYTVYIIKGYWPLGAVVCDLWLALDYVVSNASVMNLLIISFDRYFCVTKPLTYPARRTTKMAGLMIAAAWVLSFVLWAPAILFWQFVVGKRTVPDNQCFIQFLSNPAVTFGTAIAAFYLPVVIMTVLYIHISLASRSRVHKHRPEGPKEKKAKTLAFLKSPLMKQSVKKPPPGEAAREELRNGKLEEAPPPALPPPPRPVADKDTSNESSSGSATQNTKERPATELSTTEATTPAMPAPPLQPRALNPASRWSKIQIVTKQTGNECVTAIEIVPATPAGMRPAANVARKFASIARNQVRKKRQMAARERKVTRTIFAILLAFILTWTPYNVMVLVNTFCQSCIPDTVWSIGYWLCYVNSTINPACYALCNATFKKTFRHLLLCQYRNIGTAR
The test can be described thus: Functional mobilization of intracellular calcium (FLIPR) in CHO cells expressing M4. The settings on record: for EC50: CHO cells expressing M4, FLIPR calcium; for Emax: CHO, 100% = maximum response obtained with the Carbachol control, read-out: M4 Efficacy. In a few lines: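 Read-out: FLIPR fluorescence (ex 488, em 540 nm) over 60 s. Recombinant CHO lines are dye-loaded (Fluo-3 AM or Calcium 3) with 1 mM probenecid. For antagonist mode, compound is pre-incubated 15 min, or co-applied, then carbachol is added at 3× EC80 per subtype.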

What is called EC50 is the concentration needed to bring the measured effect to its halfway point.

Take `CC(C)(C)CCN1CCC2(CC[C@H](NC(=O)CC3CCCC3=O)c3ccc(F)cc32)CC1` (stereo partly shown) [compound 28]: the half-maximal effective concentration (EC50) was less than 2000 nM in test [1], 2000 to 5000 nM in test [2], greater than 5000 nM in test [3] and less than 2000 nM in test [4]. Further, the Emax was 25 to 100% in test [1], less than 25% in test [2], less than 25% in test [3] and 25 to 100% in test [4].

Turning to `CC(C)(C)CCN1CCC2(CC[C@@H](NC(=O)CCN3CCCC3=O)c3ccc(F)cc32)CC1` [compound 29], the concentration for a half-maximal effect (EC50) in test [1] is less than 2000 nM; in test [2], less than 2000 nM; in test [3] it was greater than 5000 nM; in test [4] it was less than 2000 nM. The Emax in test [1] was 25 to 100%; in test [2], 25 to 100%; in test [3], less than 25%; in test [4] it was 25 to 100%.

Turning to `CCN(C(=O)C1CCOC(C)(C)C1)[C@H]1CCC2(CCN(CCC(C)(C)C)CC2)c2ccccc21` (stereo partly shown) [compound 30], the concentration giving a half-maximal response (EC50) in test [1] is greater than 5000 nM; in test [2], greater than 5000 nM; in test [3] it was greater than 5000 nM; in test [4], 2000 to 5000 nM. Also, the Emax in test [1] is less than 25%; in test [2] it was less than 25%; in test [3], less than 25%; in test [4], 25 to 100%.

Take `CC(C)(C)CCN1CCC2(CC[C@H](NC(=O)C3CCCO3)c3ccccc32)CC1` (stereo partly shown) [compound 31]: the EC50 in test [1] was less than 2000 nM; in test [2], less than 2000 nM; in test [3] it was greater than 5000 nM; in test [4] it was less than 2000 nM. Also, the Emax in test [1] was 25 to 100%; in test [2] it was less than 25%; in test [3], less than 25%; in test [4], 25 to 100%.

Take `CC(=O)N[C@@H]1c2ccccc2C2(CCN(CCC(C)(C)C)CC2)CC1(F)F` [compound 32]: the concentration for a half-maximal effect (EC50) in test [1] is less than 2000 nM; in test [2], less than 2000 nM; in test [3], greater than 5000 nM; in test [4], less than 2000 nM. In addition, the Emax in test [1] was 25 to 100%; in test [2], 25 to 100%; in test [3], less than 25%; in test [4], 25 to 100%.

In the case of `CC(=O)NCC(=O)N[C@H]1CCC2(CCN(CCC(C)(C)C)CC2)c2cc(F)ccc21` [compound 33], the 50% effective concentration (EC50) in test [1] was less than 2000 nM; in test [2], less than 2000 nM; in test [3] it was greater than 5000 nM; in test [4] it was less than 2000 nM. Also, the Emax in test [1] is 25 to 100%; in test [2] it was 25 to 100%; in test [3] it was less than 25%; in test [4], 25 to 100%.

As for `CCN(C(=O)C(C)NC(C)=O)[C@H]1CCC2(CCN(CCC(C)(C)C)CC2)c2ccccc21` (stereo partly shown) [compound 34], the concentration for a half-maximal effect (EC50) was less than 2000 nM in test [1], 2000 to 5000 nM in test [2], greater than 5000 nM in test [3] and less than 2000 nM in test [4]. The Emax is 25 to 100% in test [1], less than 25% in test [2], less than 25% in test [3] and 25 to 100% in test [4].

In the case of `CC(C)NC(=O)C1CCC2(CCN(CCC(C)(C)C)CC2)c2ccccc21` (stereo not shown) [compound 35], the EC50 in test [1] is greater than 5000 nM; in test [2], greater than 5000 nM; in test [3] it was greater than 5000 nM; in test [4], less than 2000 nM. Further, the Emax was less than 25% in test [1], less than 25% in test [2], less than 25% in test [3] and 25 to 100% in test [4].

`CC(C)(C)CCN1CCC2(CC[C@H](NC(=O)C3CCN(C(=O)c4ccccc4)CC3)c3ccccc32)CC1` [compound 36]: the EC50 in test [1] was less than 2000 nM; in test [2], greater than 5000 nM; in test [3], greater than 5000 nM; in test [4], less than 2000 nM. The Emax in test [1] is 25 to 100%; in test [2] it was less than 25%; in test [3], less than 25%; in test [4], 25 to 100%.

With `CC(C)(C)CCN1CCC2(CCCc3ccccc32)CC1` [compound 37], the EC50 in test [1] is 2000 to 5000 nM; in test [2] it was 2000 to 5000 nM; in test [3], greater than 5000 nM; in test [4], less than 2000 nM. Further, the Emax was 25 to 100% in test [1], 25 to 100% in test [2], less than 25% in test [3] and 25 to 100% in test [4].

For the compound `C[C@H](C(=O)N[C@H]1CCC2(CCN(CCC(C)(C)C)CC2)c2ccccc21)N1CCCCC1=O` [compound 38], the concentration for a half-maximal effect (EC50) is less than 2000 nM in test [1], greater than 5000 nM in test [2], greater than 5000 nM in test [3] and less than 2000 nM in test [4]. In addition, the Emax in test [1] is 25 to 100%; in test [2] it was less than 25%; in test [3], less than 25%; in test [4], 25 to 100%.

With `CCN(C(=O)C1CCCO1)[C@H]1CCC2(CCN(CCC(C)(C)C)CC2)c2ccccc21` (stereo partly shown) [compound 39], the concentration for a half-maximal effect (EC50) was greater than 5000 nM in test [1], greater than 5000 nM in test [2], greater than 5000 nM in test [3] and less than 2000 nM in test [4]. Also, the Emax in test [1] was 25 to 100%; in test [2], less than 25%; in test [3] it was less than 25%; in test [4], 25 to 100%.

On to `Cc1cc(C(=O)N[C@@H]2CCC3(CCN(CCC(C)(C)C)CC3)c3cc(F)ccc32)nn1C` [compound 40], for which the EC50 in test [1] was less than 2000 nM; in test [2], less than 2000 nM; in test [3], greater than 5000 nM; in test [4], less than 2000 nM. The Emax in test [1] is 25 to 100%; in test [2] it was 25 to 100%; in test [3], less than 25%; in test [4], 25 to 100%.

As for `CC(=O)N1CCCCC1C(=O)N[C@H]1CCC2(CCN(CCC(C)(C)C)CC2)c2ccccc21` (stereo partly shown) [compound 41], the 50% effective concentration (EC50) in test [1] is less than 2000 nM; in test [2] it was greater than 5000 nM; in test [3] it was greater than 5000 nM; in test [4], less than 2000 nM. Besides, the Emax in test [1] was 25 to 100%; in test [2] it was less than 25%; in test [3] it was less than 25%; in test [4] it was 25 to 100%.

As to `CCN(C(=O)CC(C)(C)O)[C@H]1CCC2(CCN(CCC(C)(C)C)CC2)c2ccccc21` [compound 42], the concentration giving a half-maximal response (EC50) in test [1] was 2000 to 5000 nM; in test [2], greater than 5000 nM; in test [3], greater than 5000 nM; in test [4] it was less than 2000 nM. The Emax in test [1] was 25 to 100%; in test [2], less than 25%; in test [3] it was less than 25%; in test [4], 25 to 100%.

Take `CC#CCN(C(C)=O)[C@H]1CCC2(CCN(CCC(C)(C)C)CC2)c2ccccc21` [compound 43]: the EC50 in test [1] is less than 2000 nM; in test [2] it was less than 2000 nM; in test [3], greater than 5000 nM; in test [4], less than 2000 nM. In addition, the Emax was 25 to 100% in test [1], 25 to 100% in test [2], less than 25% in test [3] and 25 to 100% in test [4].

Consider `CCN(C(=O)C1CCC(=O)C1)[C@H]1CCC2(CCN(CCC(C)(C)C)CC2)c2ccccc21` (stereo partly shown) [compound 44], for which the EC50 in test [1] was 2000 to 5000 nM; in test [2] it was greater than 5000 nM; in test [3] it was greater than 5000 nM; in test [4], less than 2000 nM. Besides, the Emax in test [1] is 25 to 100%; in test [2], less than 25%; in test [3], less than 25%; in test [4] it was 25 to 100%.
